Drawing on patent US10030021B2, “Spirocyclic morphinans and use thereof” (Purdue Pharma L.P., priority 2014, dated 2018), this text covers EC50 and Emax for 19 compounds.

The experiment deals with T1, μ-opioid receptor (Homo sapiens, UniProt P35372).
T1 construct: purchased Perkin Elmer, Shelton, Conn
Put plainly: μ-opioid receptor [35S]GTPγS functional assay. The class given is biochemical. The conditions noted are these: for Emax: maximal effect relative to DAMGO. The method, then:
[^35S]GTPγS functional assays were conducted using freshly thawed μ-receptor membranes (Perkin Elmer, Shelton, Conn.). Assay reactions were prepared by sequentially adding the following reagents to binding buffer (100 mM NaCl, 10 mM MgCl2, 20 mM HEPES, pH 7.4) on ice (final concentrations indicated): membrane protein (0.026 mg/mL), saponin ([…]), GDP ([…]) and [^35S]GTPγS (0.20 nM; Perkin Elmer, Shelton, Conn.). The prepared membrane solution (190 μl/well) was transferred to 96-shallow well polypropylene plates containing 10 μl of 20× concentrated stock solutions of the agonist [D-Ala^2, N-methyl-Phe^4 Gly-ol^5]-enkephalin (DAMGO) prepared in dimethyl sulfoxide (DMSO). Plates were incubated for 30 min at about 25° C. with shaking. Reactions were terminated by rapid filtration onto 96-well Unifilter GF/B filter plates (Perkin Elmer, Shelton, Conn.) using a 96-well tissue harvester (Perkin Elmer, Shelton, Conn.) followed by three filtration washes with 200 μl of ice-cold wash buffer (10 mM NaH2PO4, 10 mM Na2HPO4, pH 7.4). Filter plates were subsequently dried at 50° C. for 2-3 hours. BetaScint scintillation cocktail (Perkin Elmer, Shelton, Conn.) was added (50 μl/well) and plates were counted using a Packard Top-Count for 1 min/well. Data were analyzed using the sigmoidal dose-response curve fitting functions in GraphPad PRISM v. 3.0, or an in-house function for non-linear, sigmoidal dose-response curve-fitting.
μ GTP EC50 is the concentration of a compound providing 50% of the maximal response for the compound at a μ-opioid receptor.
μ GTP Emax (%) is the maximal effect elicited by a compound relative to the effect elicited by DAMGO, a standard agonist. Generally, the μ GTP Emax (%) value measures the efficacy of a compound to treat or prevent pain or other Conditions.
(In general: GTPγS resists hydrolysis and so accumulates on activated G proteins.)

T1 sequence (P35372 whole entry, species assumed): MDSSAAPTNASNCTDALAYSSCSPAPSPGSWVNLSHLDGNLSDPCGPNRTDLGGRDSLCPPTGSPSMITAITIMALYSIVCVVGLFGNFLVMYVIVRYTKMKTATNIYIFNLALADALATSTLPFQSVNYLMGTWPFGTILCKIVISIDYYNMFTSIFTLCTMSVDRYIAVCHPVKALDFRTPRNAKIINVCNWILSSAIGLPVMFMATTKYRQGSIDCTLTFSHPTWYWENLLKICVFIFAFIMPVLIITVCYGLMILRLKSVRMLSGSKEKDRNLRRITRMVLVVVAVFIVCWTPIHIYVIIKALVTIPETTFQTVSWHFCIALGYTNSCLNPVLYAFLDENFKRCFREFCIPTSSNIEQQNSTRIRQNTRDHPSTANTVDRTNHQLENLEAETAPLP

What is called EC50 is the concentration that produces a half-maximal response. Read a low EC50 as an effect from little substance. For orientation: Emax means the greatest response seen or fitted, relative to the assay's reference. Consider `COc1ccc2c(c1)[C@]13CCN(C)[C@H](C2)[C@@H]1CC[C@@]1(C3)NC(=O)NC1=O` [Compound 2, (4S,4b′S,8a′R,9′R)-3′-methoxy-11′-methyl-8′,8a′,9′,10′-tetrahydro-5′H,7′H-spiro[imidazolidine-4,6′-[9,4b](epiminoethano)phenanthrene]-2,5-dione], for which the EC50 is 18 ± 1.1 µM and the Emax was determined as 75.7 ± 0.88%.

As to `COc1ccc2c(c1)[C@]13CCN(CCN(C)C)[C@H](C2)[C@]1(O)CC[C@@]1(C3)NC(=O)NC1=O` [Compound 3, (4S,4b′R,8a′S,9′R)-11′-(2-(dimethylamino)ethyl)-8a′-hydroxy-3′-methoxy-8′,8a′,9′,10′-tetrahydro-5′H,7′H-spiro[imidazolidine-4,6′-[9,4b](epiminoethano)phenanthrene]-2,5-dione], the EC50 is over 20 µM and the Emax is -0.8%.

In the case of `COc1ccc2c(c1)[C@]13CCN(CCCN(C)C)[C@H](C2)[C@]1(O)CC[C@@]1(C3)NC(=O)NC1=O` [Compound 4, (4S,4b′R,8a′S,9′R)-11′-(3-(dimethylamino)propyl)-8a′-hydroxy-3′-methoxy-8′,8a′,9′,10′-tetrahydro-5′H,7′H-spiro[imidazolidine-4,6′-[9,4b](epiminoethano)phenanthrene]-2,5-dione], the EC50 was over 20 µM and the Emax is -1 ± 0.003%.

Regarding `CCN1C(=O)N(CC)[C@]2(CC[C@@]3(O)[C@H]4Cc5ccc(OC)cc5[C@@]3(CCN4CCN(C)C)C2)C1=O` [Compound 8, (4S,4b′R,8a′S,9′R)-11′-(2-(dimethylamino)ethyl)-1,3-diethyl-8a′-hydroxy-3′-methoxy-8′,8a′,9′,10′-tetrahydro-5′H,7′H-spiro[imidazolidine-4,6′-[9,4b](epiminoethano)phenanthrene]-2,5-dione], the 50% effective concentration (EC50) is over 20 µM and the Emax is 1%.

On to `COc1ccc2c(c1)[C@]13CCN(CCCN(C)C)[C@H](C2)[C@]1(O)CC[C@]1(C3)C(=O)N(CC2CC2)C(=O)N1CC1CC1` [Compound 13, (4S,4b′R,8a′S,9′R)-1,3-bis(cyclopropylmethyl)-11′-(3-(dimethylamino)propyl)-8a′-hydroxy-3′-methoxy-8′,8a′,9′,10′-tetrahydro-5′H,7′H-spiro[imidazolidine-4,6′-[9,4b]-(epiminoethano)phenanthrene]-2,5-dione], for which the EC50 is over 20 µM and the Emax was 1%.

In the case of `CCN1C(=O)N(CC)[C@]2(CC[C@@]3(O)[C@H]4Cc5ccc(OC)cc5[C@@]3(CCN4CCCN(C)C)C2)C1=O` [Compound 14, (4S,4b′R,8a′S,9′R)-11′-(3-(dimethylamino)propyl)-1,3-diethyl-8a′-hydroxy-3′-methoxy-8′,8a′,9′,10′-tetrahydro-5′H,7′H-spiro[imidazolidine-4,6′-[9,4b](epiminoethano)-phenanthrene]-2,5-dione], the EC50 is over 20 µM and the Emax came out at 1%.

With `COc1ccc2c(c1)[C@]13CCN(CCN(C)C)[C@H](C2)[C@]1(O)CC[C@]1(C3)C(=O)N(CC2CC2)C(=O)N1CC1CC1` [Compound 15, (4S,4b′R,8a′S,9′R)-1,3-bis(cyclopropylmethyl)-11′-(2-(dimethylamino)ethyl)-8a′-hydroxy-3′-methoxy-8′,8a′,9′,10′-tetrahydro-5′H,7′H-spiro[imidazolidine-4,6′-[9,4b]-(epiminoethano)phenanthrene]-2,5-dione], the EC50 is over 20 µM and the Emax amounted to 1%.

Regarding `COc1ccc2c(c1)[C@]13CCN[C@H](C2)[C@]1(O)CC[C@]1(C3)C(=O)N(CC2CC2)C(=O)N1CC1CC1` [Compound 17, (4S,4b′R,8a′S,9′R)-1,3-bis(cyclopropylmethyl)-8a′-hydroxy-3′-methoxy-8′,8a′,9′,10′-tetrahydro-5′H,7′H-spiro[imidazolidine-4,6′-[9,4b](epiminoethano)phenanthrene]-2,5-dione], the EC50 was over 20 µM and the Emax turned out to be 26 ± 5.51%.

Turning to `CCN1C(=O)N(CC)[C@]2(CC[C@@]3(O)[C@H]4Cc5ccc(OC)cc5[C@@]3(CCN4)C2)C1=O` [Compound 18, (4S,4b′R,8a′S,9′R)-1,3-diethyl-8a′-hydroxy-3′-methoxy-8′,8a′,9′,10′-tetrahydro-5′H,7′H-spiro[imidazolidine-4,6′-[9,4b](epiminoethano)phenanthrene]-2,5-dione], the EC50 was over 20 µM and the Emax stood at 35.7 ± 1.2%.

In the case of `CN1CC[C@]23C[C@]4(CC[C@H]2[C@H]1Cc1ccc(O)cc13)NC(=O)NC4=O` [Compound 19, (4S,4b′S,8a′R,9′R)-3′-hydroxy-11′-methyl-8′,8a′,9′,10′-tetrahydro-5′H,7′H-spiro[imidazolidine-4,6′-[9,4b](epiminoethano)phenanthrene]-2,5-dione], the EC50 stood at 0.097 ± 0.0115 µM and the Emax was determined as 54.6 ± 3.04%.

As to `CCN1C(=O)N(CC)[C@]2(CC[C@@]3(O)[C@H]4Cc5ccc(O)cc5[C@@]3(CCN4)C2)C1=O` [Compound 20, (4S,4b′R,8a′S,9′R)-1,3-diethyl-3′,8a′-dihydroxy-8′,8a′,9′,10′-tetrahydro-5′H,7′H-spiro[imidazolidine-4,6′-[9,4b](epiminoethano)phenanthrene]-2,5-dione], the EC50 came out at 1.88 ± 0.252 µM and the Emax was determined as 28 ± 1.53%.

For the compound `O=C1NC(=O)[C@@]2(CC[C@@]3(O)[C@H]4Cc5ccc(O)cc5[C@@]3(CCN4)C2)N1` [Compound 22, (4S,4b′R,8a′S,9′R)-3′,8a′-dihydroxy-8′,8a′,9′,10′-tetrahydro-5′H,7′H-spiro[imidazolidine-4,6′-[9,4b](epiminoethano)phenanthrene]-2,5-dione], a half-maximal effect (EC50) was put at 2.85 ± 0.216 µM and the Emax was 71.7 ± 2.6%.

With `O=C1N(CC2CC2)C(=O)[C@@]2(CC[C@@]3(O)[C@H]4Cc5ccc(O)cc5[C@@]3(CCN4)C2)N1CC1CC1` [Compound 23, (4S,4b′R,8a′S,9′R)-1,3-bis(cyclopropylmethyl)-3′,8a′-dihydroxy-8′,8a′,9′,10′-tetrahydro-5′H,7′H-spiro[imidazolidine-4,6′-[9,4b](epiminoethano)phenanthrene]-2,5-dione], the midpoint of the response, the EC50, lay at 3.79 ± 0.287 µM and the Emax was 15.7 ± 0.33%.

In the case of `CCN1C(=O)N(CC)[C@]2(CC[C@@]3(O)[C@H]4Cc5ccc(O)cc5[C@@]3(CCN4CCc3ccccc3)C2)C1=O` [Compound 24, (4S,4b′R,8a′S,9′R)-1,3-diethyl-3′,8a′-dihydroxy-11′-phenethyl-8′,8a′,9′,10′-tetrahydro-5′H,7′H-spiro[imidazolidine-4,6′-[9,4b](epiminoethano)phenanthrene]-2,5-dione], the EC50 came to 0.073 ± 0.0197 µM and the Emax came to 65.3 ± 4.26%.

In the case of `CN(C)CCN1CC[C@]23C[C@@]4(CC[C@@]2(O)[C@H]1Cc1ccc(O)cc13)C(=O)N(CC1CC1)C(=O)N4CC1CC1` [Compound 25, (4S,4b′R,8a′S,9′R)-1,3-bis(cyclopropylmethyl)-11′-(2-(dimethylamino)ethyl)-3′,8a′-dihydroxy-8′,8a′,9′,10′-tetrahydro-5′H,7′H-spiro[imidazolidine-4,6′-[9,4b](epiminoethano)-phenanthrene]-2,5-dione], the EC50 is over 20 µM and the Emax was 1%.

In the case of `CCN1C(=O)N(CC)[C@]2(CC[C@@]3(O)[C@H]4Cc5ccc(O)cc5[C@@]3(CCN4CCN(C)C)C2)C1=O` [Compound 26, (4S,4b′R,8a′S,9′R)-11′-(2-(dimethylamino)ethyl)-1,3-diethyl-3′,8a′-dihydroxy-8′,8a′,9′,10′-tetrahydro-5′H,7′H-spiro[imidazolidine-4,6′-[9,4b](epiminoethano)phenanthrene]-2,5-dione], the concentration giving a half-maximal response (EC50) was over 20 µM and the Emax is 0.5%.

For the compound `CCN1C(=O)N(CC)[C@]2(CC[C@@]3(O)[C@H]4Cc5ccc(O)cc5[C@@]3(CCN4CCCN(C)C)C2)C1=O` [Compound 27, (4S,4b′R,8a′S,9′R)-11′-(3-(dimethylamino)propyl)-1,3-diethyl-3′,8a′-dihydroxy-8′,8a′,9′,10′-tetrahydro-5′H,7′H-spiro[imidazolidine-4,6′-[9,4b](epiminoethano)phenanthrene]-2,5-dione], the EC50 was over 20 µM and the Emax turned out to be 1%.

Consider `CN(C)CCCN1CC[C@]23C[C@@]4(CC[C@@]2(O)[C@H]1Cc1ccc(O)cc13)C(=O)N(CC1CC1)C(=O)N4CC1CC1` [Compound 28, (4S,4b′R,8a′S,9′R)-1,3-bis(cyclopropylmethyl)-11′-(3-(dimethylamino)propyl)-3′,8a′-dihydroxy-8′,8a′,9′,10′-tetrahydro-5′H,7′H-spiro[imidazolidine-4,6′-[9,4b](epiminoethano)-phenanthrene]-2,5-dione], for which the EC50 was over 20 µM and the Emax is 1.36%.

`CN(C)CCN1CC[C@]23C[C@]4(CC[C@@]2(O)[C@H]1Cc1ccc(O)cc13)NC(=O)NC4=O` [Compound 29, (4S,4b′R,8a′S,9′R)-11′-(2-(dimethylamino)ethyl)-3′,8a′-dihydroxy-8′,8a′,9′,10′-tetrahydro-5′H,7′H-spiro[imidazolidine-4,6′-[9,4b](epiminoethano)phenanthrene]-2,5-dione]: the EC50 worked out at 3.92 ± 0.571 µM and the Emax was determined as 23.4 ± 1.68%.
